In brackets after ≈: the same amount, converted by molar mass.
How the values were obtained:
[1] = tested on: Staphylococcus aureus; experiment: Antibacterial activity against vancomycin-susceptible Staphylococcus aureus RN4220; format: functional
[2] = tested on: Staphylococcus aureus; experiment: Antibacterial activity against methicillin-resistant vancomycin-susceptible Staphylococcus aureus SR-3637; format: functional; settings: SR3637
[3] = tested on: Staphylococcus aureus; experiment: Antibacterial activity against vancomycin A-resistant Staphylococcus aureus VRS2; format: functional
[4] = tested on: Enterococcus faecium; experiment: Antibacterial activity against vancomycin-susceptible Enterococcus faecium SR-16972; format: functional; settings: SR16972
[5] = tested on: Enterococcus faecium; experiment: Antibacterial activity against vancomycin A-resistant Enterococcus faecium SR-7940; format: functional; settings: SR7940
[6] = tested on: Enterococcus faecium; experiment: Antibacterial activity against vancomycin B-resistant Enterococcus faecium SR-23598; format: functional; settings: SR23598
[7] = tested on: Enterococcus faecalis; experiment: Antibacterial activity against vancomycin-susceptible Enterococcus faecalis SR1004; format: functional
[8] = tested on: Enterococcus faecalis; experiment: Antibacterial activity against vancomycin A-resistant Enterococcus faecalis SR-7914; format: functional; settings: SR7914
[9] = tested on: Enterococcus faecalis; experiment: Antibacterial activity against vancomycin B-resistant Enterococcus faecalis SR-23630; format: functional; settings: SR23630
[10] = Binding affinity to 8-Amino-octanoyl-D-Ala-D-Ala peptide by surface plasmon resonance

SMILES	MIC [1]	MIC [2]	MIC [3]	MIC [4]	MIC [5]	MIC [6]	MIC [7]	MIC [8]	MIC [9]	Kd [10]
CN[C@H](CC(C)C)C(=O)N[C@H]1C(=O)N[C@@H](CC(N)=O)C(=O)N[C@H]2C(=O)N[C@H]3C(=O)N[C@H](C(=O)N[C@H](C(=O)O)c4cc(O)cc(O)c4-c4cc3ccc4O)[C@H](O)c3ccc(c(/C=C/CCCc4ccccc4)c3)Oc3cc2cc(c3O[C@@H]2O[C@H](CO)[C@@H](O)[C@H](O)[C@H]2O[C@H]2C[C@](C)(N)[C@H](O)[C@H](C)O2)Oc2ccc(cc2/C=C/CCCc2ccccc2)[C@H]1O	32 µg/mL (≈ 19.2 µM)	64 µg/mL (≈ 38.4 µM)	> 64 µg/mL	32 µg/mL (≈ 19.2 µM)	> 64 µg/mL	> 64 µg/mL	32 µg/mL (≈ 19.2 µM)	> 64 µg/mL	> 64 µg/mL	–
CN[C@H](CC(C)C)C(=O)N[C@H]1C(=O)N[C@@H](CC(N)=O)C(=O)N[C@H]2C(=O)N[C@H]3C(=O)N[C@H](C(=O)N[C@H](C(=O)O)c4cc(O)cc(O)c4-c4cc3ccc4O)[C@H](O)c3ccc(c(-c4ccccc4OC)c3)Oc3cc2cc(c3O[C@@H]2O[C@H](CO)[C@@H](O)[C@H](O)[C@H]2O[C@H]2C[C@](C)(N)[C@H](O)[C@H](C)O2)Oc2ccc(cc2Cl)[C@H]1O	4 µg/mL (≈ 2.63 µM)	8 µg/mL (≈ 5.26 µM)	64 µg/mL (≈ 42.1 µM)	4 µg/mL (≈ 2.63 µM)	> 64 µg/mL	> 64 µg/mL	8 µg/mL (≈ 5.26 µM)	> 64 µg/mL	> 64 µg/mL	–
CN[C@H](CC(C)C)C(=O)N[C@H]1C(=O)N[C@@H](CC(N)=O)C(=O)N[C@H]2C(=O)N[C@H]3C(=O)N[C@H](C(=O)N[C@H](C(=O)O)c4cc(O)cc(O)c4-c4cc3ccc4O)[C@H](O)c3ccc(c(/C=C/c4ccccc4)c3)Oc3cc2cc(c3O[C@@H]2O[C@H](CO)[C@@H](O)[C@H](O)[C@H]2O[C@H]2C[C@](C)(N)[C@H](O)[C@H](C)O2)Oc2ccc(cc2Cl)[C@H]1O	1 µg/mL (≈ 0.659 µM)	2 µg/mL (≈ 1.32 µM)	16 µg/mL (≈ 10.5 µM)	1 µg/mL (≈ 0.659 µM)	> 64 µg/mL	> 64 µg/mL	1 µg/mL (≈ 0.659 µM)	> 64 µg/mL	64 µg/mL (≈ 42.2 µM)	–
CN[C@H](CC(C)C)C(=O)N[C@H]1C(=O)N[C@@H](CC(N)=O)C(=O)N[C@H]2C(=O)N[C@H]3C(=O)N[C@H](C(=O)N[C@H](C(=O)O)c4cc(O)cc(O)c4-c4cc3ccc4O)[C@H](O)c3ccc(c(/C=C/c4ccc(OC)cc4)c3)Oc3cc2cc(c3O[C@@H]2O[C@H](CO)[C@@H](O)[C@H](O)[C@H]2O[C@H]2C[C@](C)(N)[C@H](O)[C@H](C)O2)Oc2ccc(cc2Cl)[C@H]1O	1 µg/mL (≈ 0.646 µM)	2 µg/mL (≈ 1.29 µM)	16 µg/mL (≈ 10.3 µM)	1 µg/mL (≈ 0.646 µM)	> 64 µg/mL	> 64 µg/mL	1 µg/mL (≈ 0.646 µM)	> 64 µg/mL	32 µg/mL (≈ 20.7 µM)	–
CN[C@H](CC(C)C)C(=O)N[C@H]1C(=O)N[C@@H](CC(N)=O)C(=O)N[C@H]2C(=O)N[C@H]3C(=O)N[C@H](C(=O)N[C@H](C(=O)O)c4cc(O)cc(O)c4-c4cc3ccc4O)[C@H](O)c3ccc(c(/C=C/c4ccc(C(F)(F)F)cc4)c3)Oc3cc2cc(c3O[C@@H]2O[C@H](CO)[C@@H](O)[C@H](O)[C@H]2O[C@H]2C[C@](C)(N)[C@H](O)[C@H](C)O2)Oc2ccc(cc2Cl)[C@H]1O	1 µg/mL (≈ 0.631 µM)	2 µg/mL (≈ 1.26 µM)	64 µg/mL (≈ 40.4 µM)	1 µg/mL (≈ 0.631 µM)	> 64 µg/mL	32 µg/mL (≈ 20.2 µM)	1 µg/mL (≈ 0.631 µM)	64 µg/mL (≈ 40.4 µM)	2 µg/mL (≈ 1.26 µM)	–
CN[C@H](CC(C)C)C(=O)N[C@H]1C(=O)N[C@@H](CC(N)=O)C(=O)N[C@H]2C(=O)N[C@H]3C(=O)N[C@H](C(=O)N[C@H](C(=O)O)c4cc(O)cc(O)c4-c4cc3ccc4O)[C@H](O)c3ccc(c(-c4ccccc4)c3)Oc3cc2cc(c3O[C@@H]2O[C@H](CO)[C@@H](O)[C@H](O)[C@H]2O[C@H]2C[C@](C)(N)[C@H](O)[C@H](C)O2)Oc2ccc(cc2Cl)[C@H]1O	4 µg/mL (≈ 2.68 µM)	4 µg/mL (≈ 2.68 µM)	64 µg/mL (≈ 42.9 µM)	2 µg/mL (≈ 1.34 µM)	> 64 µg/mL	> 64 µg/mL	4 µg/mL (≈ 2.68 µM)	> 64 µg/mL	64 µg/mL (≈ 42.9 µM)	–
CN[C@H](CC(C)C)C(=O)N[C@H]1C(=O)N[C@@H](CC(N)=O)C(=O)N[C@H]2C(=O)N[C@H]3C(=O)N[C@H](C(=O)N[C@H](C(=O)O)c4cc(O)cc(O)c4-c4cc3ccc4O)[C@H](O)c3ccc(c(-c4ccc(OC)cc4)c3)Oc3cc2cc(c3O[C@@H]2O[C@H](CO)[C@@H](O)[C@H](O)[C@H]2O[C@H]2C[C@](C)(N)[C@H](O)[C@H](C)O2)Oc2ccc(cc2Cl)[C@H]1O	4 µg/mL (≈ 2.63 µM)	4 µg/mL (≈ 2.63 µM)	> 64 µg/mL	2 µg/mL (≈ 1.31 µM)	> 64 µg/mL	> 64 µg/mL	4 µg/mL (≈ 2.63 µM)	> 64 µg/mL	> 64 µg/mL	–
CN[C@H](CC(C)C)C(=O)N[C@H]1C(=O)N[C@@H](CC(N)=O)C(=O)N[C@H]2C(=O)N[C@H]3C(=O)N[C@H](C(=O)N[C@H](C(=O)O)c4cc(O)cc(O)c4-c4cc3ccc4O)[C@H](O)c3ccc(c(/C=C/CCCc4ccccc4)c3)Oc3cc2cc(c3O[C@@H]2O[C@H](CO)[C@@H](O)[C@H](O)[C@H]2O[C@H]2C[C@](C)(N)[C@H](O)[C@H](C)O2)Oc2ccc(cc2Cl)[C@H]1O	1 µg/mL (≈ 0.641 µM)	2 µg/mL (≈ 1.28 µM)	> 64 µg/mL	2 µg/mL (≈ 1.28 µM)	> 64 µg/mL	> 64 µg/mL	1 µg/mL (≈ 0.641 µM)	> 64 µg/mL	> 64 µg/mL	–
CN[C@H](CC(C)C)C(=O)N[C@H]1C(=O)N[C@@H](CC(N)=O)C(=O)N[C@H]2C(=O)N[C@H]3C(=O)N[C@H](C(=O)N[C@H](C(=O)O)c4cc(O)cc(O)c4-c4cc3ccc4O)[C@H](O)c3ccc(c(/C=C/c4ccc(-c5ccccc5)cc4)c3)Oc3cc2cc(c3O[C@@H]2O[C@H](CO)[C@@H](O)[C@H](O)[C@H]2O[C@H]2C[C@](C)(N)[C@H](O)[C@H](C)O2)Oc2ccc(cc2Cl)[C@H]1O	0.25 µg/mL (≈ 0.157 µM)	0.5 µg/mL (≈ 0.314 µM)	> 64 µg/mL	0.25 µg/mL (≈ 0.157 µM)	64 µg/mL (≈ 40.2 µM)	0.5 µg/mL (≈ 0.314 µM)	0.25 µg/mL (≈ 0.157 µM)	32 µg/mL (≈ 20.1 µM)	2 µg/mL (≈ 1.26 µM)	–
C/C=C/c1cc2ccc1Oc1cc3cc(c1O[C@@H]1O[C@H](CO)[C@@H](O)[C@H](O)[C@H]1O[C@H]1C[C@](C)(N)[C@H](O)[C@H](C)O1)Oc1ccc(cc1/C=C/C)[C@@H](O)[C@@H](NC(=O)[C@@H](CC(C)C)NC)C(=O)N[C@@H](CC(N)=O)C(=O)N[C@H]3C(=O)N[C@H]1C(=O)N[C@H](C(=O)N[C@H](C(=O)O)c3cc(O)cc(O)c3-c3cc1ccc3O)[C@@H]2O	1 µg/mL (≈ 0.685 µM)	2 µg/mL (≈ 1.37 µM)	64 µg/mL (≈ 43.8 µM)	1 µg/mL (≈ 0.685 µM)	> 64 µg/mL	> 64 µg/mL	2 µg/mL (≈ 1.37 µM)	> 64 µg/mL	> 64 µg/mL	–
C/C=C/c1cc2ccc1Oc1cc3cc(c1O[C@@H]1O[C@H](CO)[C@@H](O)[C@H](O)[C@H]1O[C@H]1C[C@](C)(N)[C@H](O)[C@H](C)O1)Oc1ccc(cc1/C=C/CCCCCC)[C@@H](O)[C@@H]1NC(=O)[C@H](NC(=O)[C@@H]3NC(=O)[C@H](CC(N)=O)NC(=O)[C@H](NC(=O)[C@@H](CC(C)C)NC)[C@@H]2O)c2ccc(O)c(c2)-c2c(O)cc(O)cc2[C@@H](C(=O)O)NC1=O	32 µg/mL (≈ 20.9 µM)	64 µg/mL (≈ 41.8 µM)	> 64 µg/mL	32 µg/mL (≈ 20.9 µM)	> 64 µg/mL	> 64 µg/mL	32 µg/mL (≈ 20.9 µM)	> 64 µg/mL	> 64 µg/mL	–
CN[C@H](CC(C)C)C(=O)N[C@H]1C(=O)N[C@@H](CC(N)=O)C(=O)N[C@H]2C(=O)N[C@H]3C(=O)N[C@H](C(=O)N[C@H](C(=O)O)c4cc(O)cc(O)c4-c4cc3ccc4O)[C@H](O)c3ccc(c(Cl)c3)Oc3cc2cc(c3O[C@@H]2O[C@H](CO)[C@@H](O)[C@H](O)[C@H]2O[C@H]2C[C@](C)(N)[C@H](O)[C@H](C)O2)Oc2ccc(cc2Cl)[C@H]1O [VANCOMYCIN]	–	–	> 64 µg/mL	–	> 64 µg/mL	> 64 µg/mL	2 µg/mL (≈ 1.38 µM)	> 64 µg/mL	–	3.39 µM

From ChEMBL document CHEMBL1155426, “Discovery of a novel series of semisynthetic vancomycin derivatives effective against vancomycin-resistant bacteria” (J Med Chem, 2010)
